According to EP4603105A1, “PHARMACEUTICAL COMPOSITION CONTAINING CYCLIC COMPOUND HAVING SELECTIVE KRAS INHIBITORY EFFECT AGAINST HRAS AND NRAS” (CHUGAI SEIYAKU KABUSHIKI KAISHA, priority 2022, dated 2024):

What was measured:
[1] = target: HRAS wild-type protein (Homo sapiens, UniProt P01112); test: Binding to HRAS by surface plasmon resonance (SPR), KD and KD ratio to KRAS; settings: ratio of the KD value with respect to HRAS wild-type protein to the KD value with respect to KRAS
Summary of the method: (§1)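 Compound binding is evaluated by SPR single-cycle kinetics, with concentrations added intermittently from low to high for 75 s each. Target surfaces carry GDP-loaded biotinylated Avi-RAS at about 100–300 RU, regenerated after each cycle; temperature 30°C. A 1:1 binding model gives KD.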

[2] = target: GDP-bound NRAS wild-type protein (Homo sapiens, UniProt P01111); test: Binding to NRAS by surface plasmon resonance (SPR), KD and KD ratio to KRAS; settings: ratio of the KD value with respect to GDP-bound NRAS wild-type protein to the KD value with respect to KRAS
Summary of the method: as §1

[3] = target: GDP-bound KRAS wild-type protein (Homo sapiens, UniProt P01116); test: Binding to KRAS by surface plasmon resonance (SPR), dissociation constant KD; settings: Single Cycle Kinetics, 1:1 binding model
Summary of the method: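 Read-out is KD from 1:1 fitting of single-cycle kinetics sensorgrams, blank-cycle and reference-surface corrected. Proteins were GDP-loaded, biotinylated Avi-fusions freshly captured each cycle at roughly 100–300 RU. Runs were at 30°C in HBS pH 7.4 with MgCl2, GDP and 4% DMSO.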

[4] = tested on: human lung cancer strain NCI-H441; type: cell-based
Summary of the method: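 Proliferation was scored by […] measured after the reagent was added to cultures kept at 37°C in 5% carbon dioxide.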

GDP-bound NRAS wild-type protein, sequence (P01111 whole entry): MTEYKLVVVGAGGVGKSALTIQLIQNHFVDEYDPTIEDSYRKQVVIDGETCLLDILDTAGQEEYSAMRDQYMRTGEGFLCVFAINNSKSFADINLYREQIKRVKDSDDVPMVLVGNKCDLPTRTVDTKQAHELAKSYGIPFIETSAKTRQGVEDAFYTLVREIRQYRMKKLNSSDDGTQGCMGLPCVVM
GDP-bound KRAS wild-type protein, sequence (P01116 1-188 isoform P01116-2): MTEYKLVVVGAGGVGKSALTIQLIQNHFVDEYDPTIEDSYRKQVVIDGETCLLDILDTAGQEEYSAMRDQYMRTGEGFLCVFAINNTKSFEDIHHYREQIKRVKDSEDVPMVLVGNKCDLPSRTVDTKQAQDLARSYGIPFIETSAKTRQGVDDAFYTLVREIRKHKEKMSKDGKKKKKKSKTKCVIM
HRAS wild-type protein, sequence (P01112 whole entry): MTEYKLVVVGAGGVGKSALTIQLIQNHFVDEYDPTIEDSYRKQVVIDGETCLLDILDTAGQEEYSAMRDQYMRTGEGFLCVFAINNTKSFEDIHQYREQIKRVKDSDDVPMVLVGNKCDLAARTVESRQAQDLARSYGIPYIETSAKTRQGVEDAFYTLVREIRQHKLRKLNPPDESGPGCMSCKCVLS

| Compound | HRAS /KRAS [1] | NRAS /KRAS [2] | Kd [3] [nM] | IC50 [4] [nM] |
| --- | --- | --- | --- | --- |
| CCC[C@@H]1C[C@H]2C(=O)NC3(CCCC3)C(=O)N(C)[C@@H](C3CCCC3)C(=O)N(C)[C@H](C(=O)N(C)C)CC(=O)N(C)[C@@H](CC)C(=O)N[C@@H]([C@@H](C)CC)C(=O)N(C)CC(=O)N(C)[C@H]3C/C=C\CCN(C3=O)[C@@H](Cc3ccc(C)cc3)C(=O)N(C)CC(=O)N[C@@H](CCc3cc(F)c(C(F)(F)F)c(F)c3)C(=O)N2C1 [PP2227] | A (a compound having 10 or more and less than 20 is denoted as A) | A (a compound having 10 or more and less than 20 is denoted as A) | 0.27 | 50.3 |
| CCCOC[C@H]1C(=O)N[C@@H]([C@@H](C)CC)C(=O)N(C)CC(=O)N(C)[C@H]2C/C=C\CCN(C2=O)[C@@H](Cc2ccc(C)cc2)C(=O)N(C)CC(=O)N[C@@H](CCc2cc(F)c(C(F)(F)F)c(F)c2)C(=O)N2C[C@H](CCC)C[C@H]2C(=O)NC2(CCC2)C(=O)N(C)[C@@H](C2CCCC2)C(=O)N(C)[C@H](C(=O)N(C)C)CC(=O)N1C [PP2232] | A (a compound having 10 or more and less than 20 is denoted as A) | A (a compound having 10 or more and less than 20 is denoted as A) | 0.22 | 18.7 |
| CCCOC[C@H]1C(=O)N[C@@H]([C@@H](C)CC)C(=O)N(C)CC(=O)N(C)[C@H]2C/C=C\CCN(C2=O)[C@@H](Cc2ccc(C)cc2)C(=O)N(C)CC(=O)N[C@@H](CCc2ccc(C(F)(F)F)c(Cl)c2)C(=O)N2C[C@H](CC)C[C@H]2C(=O)NC2(CC(C)(C)C2)C(=O)N(C)[C@@H](C2CCCC2)C(=O)N(C)[C@H](C(=O)N(C)C)CC(=O)N1C [PP2235] | A (a compound having 10 or more and less than 20 is denoted as A) | A (a compound having 10 or more and less than 20 is denoted as A) | 0.28 | 22.1 |
| CCC[C@H]1C(=O)N[C@@H]([C@@H](C)CC)C(=O)N(C)CC(=O)N(C)[C@H]2C/C=C\CCN(C2=O)[C@@H](Cc2ccc(C)cc2)C(=O)N(C)CC(=O)N[C@@H](CCc2ccc(C(F)(F)F)c(Cl)c2)C(=O)N2C[C@H](CC)C[C@H]2C(=O)NC2(CCC2)C(=O)N(C)[C@@H](C2CCCC2)C(=O)N(C)[C@H](C(=O)N(C)C)CC(=O)N1C [PP2237] | A (a compound having 10 or more and less than 20 is denoted as A) | A (a compound having 10 or more and less than 20 is denoted as A) | 0.14 | 64.7 |
| CCC[C@H]1C(=O)N[C@@H](C2CCC2)C(=O)N(C)CC(=O)N(C)[C@H]2C/C=C\CCN(C2=O)[C@@H](Cc2ccc(C)cc2)C(=O)N(C)CC(=O)N[C@@H](CCc2ccc(C(F)(F)F)c(F)c2)C(=O)N2C[C@H](OCC)C[C@H]2C(=O)NC2(CC(C)(C)C2)C(=O)N(C)[C@@H](C2CCC2)C(=O)N(C)[C@H](C(=O)N(C)C)CC(=O)N1C [PP2242] | A (a compound having 10 or more and less than 20 is denoted as A) | A (a compound having 10 or more and less than 20 is denoted as A) | 1.8 | 178 |
| CCO[C@@H]1C[C@H]2C(=O)NC3(CCC3)C(=O)N(C)[C@@H](C3CCCC3)C(=O)N(C)[C@H](C(=O)N(C)CC)CC(=O)N(C)[C@H]3CCCCCCc4ccc(cc4)C[C@@H](C(=O)N(C)CC(=O)N[C@@H](CCc4ccc(C(F)(F)F)c(OC)c4)C(=O)N2C1)N1CC/C=C\C[C@@H](C1=O)N(C)C(=O)CN(C)C(=O)[C@H]([C@@H](C)CC)NC3=O [PP2263] | A (a compound having 10 or more and less than 20 is denoted as A) | A (a compound having 10 or more and less than 20 is denoted as A) | 0.98 | 19.5 |
| CCOC[C@H]1C(=O)N[C@@H]([C@@H](C)CC)C(=O)N(C2CC2)CC(=O)N(C)[C@H]2C/C=C\CCN(C2=O)[C@@H](Cc2ccc(C(F)(F)F)cc2)C(=O)N(C)CC(=O)N[C@@H](CCc2ccc(C(F)(F)F)c(OC)c2)C(=O)N2C[C@H](OCC)C[C@H]2C(=O)N(C)C2(CCC2)C(=O)N(C)[C@@H](C(CC)CC)C(=O)N(C)[C@H](C(=O)N(C)C)CC(=O)N1C [PP2315] | A (a compound having 10 or more and less than 20 is denoted as A) | A (a compound having 10 or more and less than 20 is denoted as A) | 0.33 | 9 |
| CCCOC[C@H]1C(=O)N[C@@H]([C@@H](C)CC)C(=O)N(C2CC2)CC(=O)N(C)[C@H]2C/C=C\CCN(C2=O)[C@@H](Cc2ccc(C(F)(F)F)cc2)C(=O)N(C)CC(=O)N[C@@H](CCc2ccc(C(F)(F)F)c(OC)c2)C(=O)N2C[C@H](OCC)C[C@H]2C(=O)N(C)C2(CCC2)C(=O)N(C)[C@@H](C2CCCC2)C(=O)N(C)[C@H](C(=O)N(C)C)CC(=O)N1C [PP2318] | A (a compound having 10 or more and less than 20 is denoted as A) | A (a compound having 10 or more and less than 20 is denoted as A) | 0.12 | 3.3 |
| CCCOC[C@H]1C(=O)N[C@@H]([C@@H](C)CC)C(=O)N(C)CC(=O)N(C)[C@H]2C/C=C\CCN(C2=O)[C@@H](Cc2ccc(C)cc2)C(=O)N(C)CC(=O)N[C@@H](CCc2ccc(C(F)(F)F)c(OC)c2)C(=O)N2C[C@H](OCC)C[C@H]2C(=O)N(C)C2(CCC2)C(=O)N(C)[C@@H](C(CC)CC)C(=O)N(C)[C@H](C(=O)N(C)C)CC(=O)N1C [PP2323] | A (a compound having 10 or more and less than 20 is denoted as A) | A (a compound having 10 or more and less than 20 is denoted as A) | 0.14 | 3.7 |
| CCC[C@H]1C(=O)N[C@@H]([C@@H](C)CC)C(=O)N(C2CC2)CC(=O)N(C)[C@H]2C/C=C\CCN(C2=O)[C@@H](Cc2ccc(C)cc2)C(=O)N(C)CC(=O)N[C@@H](CCc2ccc(C(F)(F)F)c(OC)c2)C(=O)N2C[C@H](OCC)C[C@H]2C(=O)N(C)C2(CCC2)C(=O)N(C)[C@@H](C(CC)CC)C(=O)N(C)[C@H](C(=O)N(C)C)CC(=O)N1C [PP2325] | A (a compound having 10 or more and less than 20 is denoted as A) | A (a compound having 10 or more and less than 20 is denoted as A) | 0.4 | 8.2 |
| CCCOC[C@H]1C(=O)N[C@@H]([C@@H](C)CC)C(=O)N(C)CC(=O)N(C)[C@H]2C/C=C\CCN(C2=O)[C@@H](Cc2ccc(C)cc2)C(=O)N(C)CC(=O)N[C@@H](CCc2ccc(C(F)(F)F)c(OC)c2)C(=O)N2C[C@H](OCC)C[C@H]2C(=O)N(C)C2(CCC2)C(=O)N(C)[C@@H](C2CCCC2)C(=O)N(C)[C@H](C(=O)N(C)C)CC(=O)N1C [PP2326] | B (a compound having 3 or more and less than 10 is denoted as B) | A (a compound having 10 or more and less than 20 is denoted as A) | 0.031 | 1.6 |
| CCC[C@H]1C(=O)N[C@@H]([C@@H](C)CC)C(=O)N(C)CC(=O)N(C)[C@H]2C/C=C\CCN(C2=O)[C@@H](CC2CCCCC2)C(=O)N(C)CC(=O)N[C@@H](CCc2ccc(C(F)(F)F)c(OC)c2)C(=O)N2C[C@H](OCC)C[C@H]2C(=O)N(C)C2(CCC2)C(=O)N(C)[C@@H](C(CC)CC)C(=O)N(C)[C@H](C(=O)N(C)C)CC(=O)N1C [PP2333] | A (a compound having 10 or more and less than 20 is denoted as A) | A (a compound having 10 or more and less than 20 is denoted as A) | 1.9 | 44.7 |
| CCC[C@H]1C(=O)N[C@@H]([C@@H](C)CC)C(=O)N(C2CC2)CC(=O)N(C)[C@H]2C/C=C\CCN(C2=O)[C@@H](CC2CCCCC2)C(=O)N(C)CC(=O)N[C@@H](CCc2ccc(C(F)(F)F)c(OC)c2)C(=O)N2C[C@H](OCC)C[C@H]2C(=O)N(C)C2(CCC2)C(=O)N(C)[C@@H](C(CC)CC)C(=O)N(C)[C@H](C(=O)N(C)C)CC(=O)N1C [PP2337] | A (a compound having 10 or more and less than 20 is denoted as A) | A (a compound having 10 or more and less than 20 is denoted as A) | 32 | 33.9 |
| CCC[C@H]1C(=O)N[C@@H]([C@@H](C)CC)C(=O)N(C2CC2)CC(=O)N(C)[C@H]2C/C=C\CCN(C2=O)[C@@H](CC2CCCCC2)C(=O)N(C)CC(=O)N[C@@H](CCc2ccc(C(F)(F)F)c(OC)c2)C(=O)N2C[C@H](OCC)C[C@H]2C(=O)N(C)C2(CCC2)C(=O)N(C)[C@@H](C2CCCC2)C(=O)N(C)[C@H](C(=O)N(C)C)CC(=O)N1C [PP2340] | B (a compound having 3 or more and less than 10 is denoted as B) | B (a compound having 3 or more and less than 10 is denoted as B) | 1.1 | 44.9 |
